# Target: T1, human PTH1 receptor (Homo sapiens, UniProt Q03431)
# T1 sequence (Q03431 27-593): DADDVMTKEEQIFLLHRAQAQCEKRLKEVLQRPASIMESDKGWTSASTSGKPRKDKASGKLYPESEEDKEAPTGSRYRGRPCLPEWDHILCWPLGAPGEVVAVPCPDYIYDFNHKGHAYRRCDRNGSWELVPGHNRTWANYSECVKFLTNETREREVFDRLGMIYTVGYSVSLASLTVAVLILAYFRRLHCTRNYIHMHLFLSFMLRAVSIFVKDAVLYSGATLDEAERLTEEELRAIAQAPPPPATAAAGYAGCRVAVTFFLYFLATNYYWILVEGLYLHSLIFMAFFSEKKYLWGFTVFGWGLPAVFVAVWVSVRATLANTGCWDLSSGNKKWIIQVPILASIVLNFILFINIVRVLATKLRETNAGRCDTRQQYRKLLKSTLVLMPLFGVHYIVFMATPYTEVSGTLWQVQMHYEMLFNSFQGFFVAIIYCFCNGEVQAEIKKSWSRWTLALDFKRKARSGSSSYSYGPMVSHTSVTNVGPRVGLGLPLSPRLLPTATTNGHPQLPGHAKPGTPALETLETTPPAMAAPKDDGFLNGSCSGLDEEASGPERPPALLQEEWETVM
# Test: In vitro cAMP signal activity in HKRK-B7 cells (LLC-PK1 cells overexpressing the human PTH1 receptor)
# Type: cell-based
# Details: HKRK-B7 cells; compound at 1×10^−3 M; cAMP produced as percentage of that produced by hPTH(1-34) at 100 nM
row,Structure (SMILES),cAMP production activity (%)
1,"Cc1cc(CN(C)C(N)=O)cc(C)c1/C=C/S(=O)(=O)N1CCC2(CC1)N=C(C1CCC(C)CC1)NC2=O (centres unmarked) [Compound 1301, 1-(3,5-dimethyl-4-{(E)-2-[2-(4-methyl-cyclohexyl)-4-oxo-1,3,8-triaza-spiro[4.5]dec-1-ene-8-sulfonyl]-vinyl}-benzyl)-1-methyl-urea]",49
2,"Cc1cc(N2CCC2=O)ccc1/C=C/S(=O)(=O)N1CCC2(CC1)N=C(C1CCCCC1)NC2=O [Compound 572, 2-cyclohexyl-8-{(E)-2-[2-methyl-4-(2-oxo-azetidin-1-yl)-phenyl]-ethenesulfonyl}-1,3,8-triaza-spiro[4.5]dec-1-en-4-one]",36
3,"Cc1cc(N2C(C)(C)C(=O)NS2(=O)=O)cc(C)c1CCS(=O)(=O)N1CCC2(CC1)N=C(C1CCC(C)CC1)NC2=O (centres unmarked) [Compound 656, 8-{2-[4-(3,3-dimethyl-1,1,4-trioxo-1λ^6-[1,2,5]thiadiazolidin-2-yl)-2,6-dimethyl-phenyl]-ethanesulfonyl}-2-(4-methyl-cyclohexyl)-1,3,8-triaza-spiro[4.5]dec-1-en-4-one]",14
4,"Cc1cc(C(=O)N2CCC(C)(O)CC2)cc(C)c1/C=C/S(=O)(=O)N1CCC2(CC1)N=C(c1ccc(OCCCC(F)(F)F)c(C(F)(F)F)c1)NC2=O [Compound 1204, 8-{(E)-2-[4-(4-hydroxy-4-methyl-piperidine-1-carbonyl)-2,6-dimethyl-phenyl]-ethenesulfonyl}-2-[4-(4,4,4-trifluoro-butoxy)-3-trifluoromethyl-phenyl]-1,3,8-triaza-spiro[4.5]dec-1-en-4-one]",83
5,"CC[C@H]1CC[C@H](C2=NC3(CCN(S(=O)(=O)CCc4ccc(N)c(Cl)c4C)CC3)C(=O)N2)CC1 [Compound 1293, 8-[2-(4-Amino-3-chloro-2-methyl-phenyl)-ethanesulfonyl]-2-(4-ethyl-cyclohexyl)-1,3,8-triaza-spiro[4.5]dec-1-en-4-one]",84
6,"Cc1cc2c(ccn2C[C@@H](O)CO)c(C)c1/C=C/S(=O)(=O)N1CCC2(CC1)N=C(C1CCC(CCC(F)(F)F)CC1)NC2=O (stereo partly drawn) [Compound 630, 8-{(E)-2-[1-((R)-2,3-dihydroxy-propyl)-4,6-dimethyl-1H-indol-5-yl]-ethenesulfonyl}-2-[4-(3,3,3-trifluoro-propyl)-cyclohexyl]-1,3,8-triaza-spiro[4.5]dec-1-en-4-one]",4.1
7,"Cc1cc(N(C)C(N)=O)cc(C)c1CCS(=O)(=O)N1CCC2(CC1)N=C(c1cccc(OC(F)(F)C(F)F)c1)NC2=O [Compound 1038, 1-[3,5-Dimethyl-4-(2-{4-oxo-2-[3-(1,1,2,2-tetrafluoro-ethoxy)-phenyl]-1,3,8-triaza-spiro[4.5]dec-1-ene-8-sulfonyl}-ethyl)-phenyl]-1-methyl-urea]",111
8,"Cc1cc(N(C[C@H](O)CO)C(N)=O)cc(C)c1/C=C/S(=O)(=O)N1CCC2(CC1)N=C(C1CCC(C)CC1)NC2=O (stereo partly drawn) [Compound 733, 1-((S)-2,3-Dihydroxy-propyl)-1-(3,5-dimethyl-4-{(E)-2-[2-(4-methyl-cyclohexyl)-4-oxo-1,3,8-triaza-spiro[4.5]dec-1-ene-8-sulfonyl]-vinyl}-phenyl)-urea]",104
9,"CCC1CCC(C2=NC3(CCN(S(=O)(=O)CCc4cc(Cl)c(NC(C)=O)cc4C)CC3)C(=O)N2)CC1 (centres unmarked) [Compound 953, N-(2-Chloro-4-{2-[2-(4-ethyl-cyclohexyl)-4-oxo-1,3,8-triaza-spiro[4.5]dec-1-ene-8-sulfonyl]-ethyl}-5-methyl-phenyl)-acetamide]",77
10,"Cc1cc(CC(=O)N(C)C)ccc1CCS(=O)(=O)N1CCC2(CC1)N=C(C1CCC(C)CC1)NC2=O (centres unmarked) [Compound 1387, N,N-dimethyl-2-(3-methyl-4-{2-[2-(4-methyl-cyclohexyl)-4-oxo-1,3,8-triaza-spiro[4.5]dec-1-ene-8-sulfonyl]-ethyl}-phenyl)-acetamide]",68
11,"COc1cc(N(C)C(N)=O)cc(C)c1/C=C/S(=O)(=O)N1CCC2(CC1)N=C(C1CCC(C)CC1)NC2=O (centres unmarked) [Compound 728, 1-(3-Methoxy-5-methyl-4-{(E)-2-[2-(4-methyl-cyclohexyl)-4-oxo-1,3,8-triaza-spiro[4.5]dec-1-ene-8-sulfonyl]-vinyl}-phenyl)-1-methyl-urea]",87
12,"Cc1cc(CN2CCCC2=O)cc(C)c1/C=C/S(=O)(=O)N1CCC2(CC1)N=C(C1CCC(C)CC1)NC2=O (centres unmarked) [Compound 520, 8-{(E)-2-[2,6-dimethyl-4-(2-oxo-pyrrolidin-1-ylmethyl)-phenyl]-ethenesulfonyl}-2-(4-methyl-cyclohexyl)-1,3,8-triaza-spiro[4.5]dec-1-en-4-one]",28
13,"CCCCCCC(CCC)CCC1=NC2(CCN([S@TB18](=O)(=O)/C=C/c3c(C)cc(N(C)C(N)=O)cc3C)CC2)C(=O)N1 (centres unmarked) [Compound 1126, 1-(3,5-dimethyl-4-{(E)-2-[4-oxo-2-(3-propyl-nonyl)-1,3,8-triaza-spiro[4.5]dec-1-ene-8-sulfonyl]-vinyl}-phenyl)-1-methyl-urea]",106
14,"O=C1NC(C2CCC(CCC(F)(F)F)CC2)=NC12CCN(S(=O)(=O)CCc1cccc3c1ccn3CCOC[C@H](O)[C@@H](O)CO)CC2 (stereo partly drawn) [Compound 823, 2-[4-(3,3,3-trifluoro-propyl)-cyclohexyl]-8-(2-{1-[2-((2S,3S)-2,3,4-trihydroxy-butoxy)-ethyl]-1H-indol-4-yl}-ethanesulfonyl)-1,3,8-triaza-spiro[4.5]dec-1-en-4-one]",103
15,"CCCCCCCCCC1=NC2(CCN(S(=O)(=O)CCc3ccc(C(=O)N4CCC4)cc3C)CC2)C(=O)N1 [Compound 978, 8-{2-[4-(azetidine-1-carbonyl)-2-methyl-phenyl]-ethanesulfonyl}-2-nonyl-1,3,8-triaza-spiro[4.5]dec-1-en-4-one]",91
16,"Cc1cc(N(C)C(N)=O)cc(C)c1CCS(=O)(=O)N1CC2(C1)N=C(c1cccc(OC(F)(F)F)c1)NC2=O [Compound 941, 1-(3,5-dimethyl-4-{2-[8-oxo-6-(3-trifluoromethoxy-phenyl)-2,5,7-triaza-spiro[3.4]oct-5-ene-2-sulfonyl]-ethyl}-phenyl)-1-methyl-urea]",21
17,"CC(=O)N(CCO)c1ccc(CCS(=O)(=O)N2CCC3(CC2)N=C(c2ccc(F)c(C(F)(F)F)c2)NC3=O)c(C)c1 [Compound 721, N-(4-{2-[2-(4-Fluoro-3-trifluoromethyl-phenyl)-4-oxo-1,3,8-triaza-spiro[4.5]dec-1-ene-8-sulfonyl]-ethyl}-3-methyl-phenyl)-N-(2-hydroxy-ethyl)-acetamide]",92
18,"Cc1cc(OCCOC[C@H](O)CO)cc(C)c1/C=C/S(=O)(=O)N1CCC2(CC1)N=C(C1CCC(CCC(F)(F)F)CC1)NC2=O (stereo partly drawn) [Compound 698, 8-((E)-2-{4-[2-((R)-2,3-dihydroxy-propoxy)-ethoxy]-2,6-dimethyl-phenyl}-ethenesulfonyl)-2-[4-(3,3,3-trifluoro-propyl)-cyclohexyl]-1,3,8-triaza-spiro[4.5]dec-1-en-4-one]",62
19,"Cc1cc(C(=O)N2CCC(OC[C@H](O)CO)CC2)cc(C)c1CCS(=O)(=O)N1CCC2(CC1)N=C(C1CCC(CCC(F)(F)F)CC1)NC2=O (stereo partly drawn) [Compound 1384, 8-(2-{4-[4-((R)-2,3-dihydroxy-propoxy)-piperidine-1-carbonyl]-2,6-dimethyl-phenyl}-ethanesulfonyl)-2-[4-(3,3,3-trifluoro-propyl)-cyclohexyl]-1,3,8-triaza-spiro[4.5]dec-1-en-4-one]",78
20,"Cc1cc(N2C(=O)OCC2C)ccc1/C=C/S(=O)(=O)N1CCC2(CC1)N=C(C1CCC(C)CC1)NC2=O (centres unmarked) [Compound 579, 2-(4-methyl-cyclohexyl)-8-{(E)-2-[2-methyl-4-(4-methyl-2-oxo-oxazolidin-3-yl)-phenyl]-ethenesulfonyl}-1,3,8-triaza-spiro[4.5]dec-1-en-4-one]",55
21,"Cc1cc(C(=O)N(C)C)ccc1/C=C/S(=O)(=O)N1CCC2(CC1)N=C(c1cccc(OC(F)(F)F)c1)NC2=O [Compound 231, 3,N,N-trimethyl-4-{(E)-2-[4-oxo-2-(3-trifluoromethoxy-phenyl)-1,3,8-triaza-spiro[4.5]dec-1-ene-8-sulfonyl]-vinyl}-benzamide]",96
22,"O=C1NC(C2CCCN(S(=O)(=O)CCc3cccc4ccccc34)C2)=NC12CCN(S(=O)(=O)CCc1cccc3ccccc13)CC2 (centres unmarked) [Compound 39, 8-(2-Naphthalen-1-yl-ethanesulfonyl)-2-[1-(2-naphthalen-1-yl-ethanesulfonyl)-piperidin-3-yl]-1,3,8-triaza-spiro[4.5]dec-1-en-4-one]",25
23,"CC[S+]([O-])CCCCCCC1=NC2(CCN(S(=O)(=O)CCc3c(C)cc(N(C)C(N)=O)cc3C)CC2)C(=O)N1 (centres unmarked) [Compound 1317, 1-(4-{2-[2-(6-ethanesulfinyl-hexyl)-4-oxo-1,3,8-triaza-spiro[4.5]dec-1-ene-8-sulfonyl]-ethyl}-3,5-dimethyl-phenyl)-1-methyl-urea]",3.4

# From patent publication US9169254B2, “Spiroimidazolone derivative” (Chugai Seiyaku Kabushiki Kaisha, priority 2009, dated 2015)
